Test results: patent publication US9920295B2, “Bioreactor for isolation of rare cells and methods of use” (The Trustees of the University of Pennsylvania, priority 2012, dated 2018)

What was measured:
Type in all cases: cell-based, human
[1] = test system: MKs; test: In vitro platelet generation from MKs; details: 20 μM for 3 d, then 3 d of no drug
Description: For platelet-activation assays, platelet-sided fraction isolated from either MK culture or NSG blood was resuspended in Tyrode's buffer supplemented with Mg^2+ and Ca^2+, and incubated with indicated agonists for 15 min at 37° C., followed by staining with FITC-conjugated anti-human P-selectin or PAC-1 antibody (BD Bioscience), APC-conjugated anti-human CD41, and in the case of xenograft samples, PE-conjugated anti-mouse CD41 for 15 min at room temperature, followed by fixation with 1.5% paraformaldehyde. Antibody-stained samples were then analyzed by flow cytometry. Platelet number was evaluated by mixing each sample with a defined number (˜10,000 beads per sample) of APC-conjugated beads (BD Bioscience). The number of platelets per sample was evaluated by: number of CD41^+ events/number of APC-bead events multiplied by total known number of APC-bead added per sample.
Transplantation of uncultured human cord-blood CD34^+ cells in immuno-deficient nonobese diabetic (NOD)/SCID mice has been shown previously to yield sustained generation of human platelets (Salles et al., 2009, Blood, 114:5044-5051), but the intravenous delivery route used to date requires a large number of cells for homing and engraftment. Intrabone marrow transplantation was instead used here to more rapidly expose injected cells to the marrow microenvironment per FIG. 1A. […]

[2] = test system: BM CD34+-derived cells; test: Live cell imaging of cell division
Description: At least 20,000 BM CD34^+-derived cells were put into Ibidi μ-slide VI (Ibidi GmbH) in cell culture medium. Analysis was done in an insulated chamber maintained at 37° C., 5% CO2. A series of images were collected every 5 min for 18 to ˜24 h with an Olympus IX70 inverted microscope with 300 W Xenon lamp illumination using 10× or 20× objectives under bright field. Image stacks were further analyzed by ImageJ to analyze cell division with or without blebbistatin treatment.

[3] = test system: NMM-IIA pS1943; test: pS1943 of NMM-IIA by phospho-specific flow cytometry; details: under cytokine stimulation (SCF and Tpo)
Description: Cells were fixed with 4% paraformaldehyde in PBS for 10 min, washed with PBS and resuspended in 0.1% saponin in HBSS (staining medium). The samples were then stained with antibodies against cytoplasmic antigens, including NMM-IIA (Sigma), NMM-IIB, phospho-NMM-IIA and caspase-3 (all from Cell Signaling Technology) for 30 min at room temperature. In some cases, cells were concurrently stained with PE anti-CD34 or anti-human CD38 for subpopulation analysis. Cells were then washed and stained with anti-rabbit or mouse secondary antibodies conjugated with Alexa 647 (Invitrogen) for 30 min, followed by analysis on FACSCalibur.

[4] = test system: CD34+-derived cells (HSC, MPP, CPP); test: HSC/P subpopulation analysis by flow cytometry
Description: Freshly purified bone marrow-derived human CD34^+ cells were obtained from either the Penn Xenograft Core Facility or AllCells (Emeryville, Calif.). Cells from at least 20 different donors were used in this study. Purity of the samples (>98%) was confirmed by flow cytometry with monoclonal antibody against human CD34. All experiments were performed in HSC expansion media (StemLine, Sigma) supplemented with 1× antibiotics, 20% BIT 9500 Serum Substitute (StemCell Technologies), 2 mM […] (Gibco) and the following human recombinant cytokines: SCF (100 ng/ml) and Tpo (100 ng/ml). In some occasions, the media was also supplemented by G-CSF (100 ng/ml), epidermal growth factor (EGF, 100 ng/ml), transforming growth factor beta 1 (TGF-beta1, 100 ng/ml), erythropoietin (EPO, 1 U/ml) and interleukin-3 (IL-3, 10 ng/ml). All cytokines were purchased from R&D Systems. After cells were cultured for 4 days, they were treated with different doses of cellular contractility inhibitors, including (±)-Blebbistatin (Bleb) (EMD Biosciences) and/or CH-223191 (Sigma) for indicated durations of up to 3 days. Cells were cultured at 37° C. in 5% CO2.
Surface marker analysis for HSC/Ps was done on either a LSR II flow cytometer or FACSCalibur (Becton Dickinson). […] Cells isolated from the bone marrow stained for 1 hr with APC anti-mouse CD47 (miap301, AbD Serotec), FITC anti-human CD47 (BD Biosciences), and PE anti-human CD11b, PE anti-human CD19 (both from BD Biosciences), or PE anti-human Glycophorin A (Invitrogen). Plts and RBCs were analyzed by staining with PE anti-mouse CD41 (eBioscience) and FITC anti-human CD41 (eBioscience) for 20 min, followed by analysis on FACSCalibur on log forward and side scatter scales.

## Cc1ccc2c(c1)C(=O)C1(O)CCN(c3ccccc3)C1=N2 (racemic) [blebbistatin, (±)-blebbistatin]
[1]
  in vitro platelets per CD41+ cell vs untreated MKs: 2.5 fold
[2]
  cells showing reversal of cytokinesis: ~80%
[3]
  effect on pS1943 level: inhibits the reduction of pS1943
[4]
  change in primitive HSC cell number: < 50%
[4]; 20 μM, 2N cells
  enrichment for LT-HSCs: 15.6±4.1 fold
[4]; 2N cells, n≥4 donors, read-out: CPP and MPP number IC50
  IC50: ~10.5 µM
[4]; 3-day treatment
  CPP depletion: 31 fold
  CPP depletion, range: 15-48 fold
  HSC enrichment, average: 16 fold
  HSC enrichment, range: 5-24 fold
  MPP depletion: 1.8 fold
  MPP depletion, range: 1.3-2.3 fold
[4]; normalized to initial cell input
  HSC number, mean: 646±77
[4]; on plastic
  HSC-to-MPP ratio vs untreated cells: ~4 fold
[4]; read-out: inhibition constant Ki, MPPs and CPPs
  Ki: ~10.5 µM
